Paper PMC6858373 (Scientific Reports, 2019)
Where two headings read alike, the source gives them in different places.

Legend:
[1] = biological target: T1, FGF14:Nav1.6 C-tail complex (Homo sapiens, UniProt Q92915+Q9UQD0); assay: Split-luciferase complementation assay (LCA) in Clone V double stable HEK293 cells; format: cell-based; conditions: for Split Luciferase Assay % Lum Set 1 / Split Luciferase Assay Z-score Set 1: biological replicate Set 1; for Split Luciferase Assay % Lum Set 1 / Split Luciferase Assay %Lum Set 2: normalized to on-plate 0.3% DMSO controls (n=16 per plate); for Split Luciferase Assay %Lum Set 2 / Split Luciferase Assay Z-score Set 2: biological replicate Set 2; for Split Luciferase Assay Z-score Set 1 / Split Luciferase Assay Z-score Set 2: normalized to on-plate 0.3% DMSO controls; for Split Luciferase Assay %Lum Avg: average of Set 1 and Set 2, normalized to 0.3% DMSO controls; for Z-score (LCA primary screening): 30 µM, average of primary screening (n = 2), vs on-plate 0.3% DMSO
T1 construct: polymerase chain reaction (PCR) amplification of the FGF14 open reading frame (nt 1–855); C-terminal fragment of Nav1.6 (amino acids 1763–1976) fused with CD4ΔC-tail (amino acids 1–395); expressed in transfected cells
T1 sequence (Q92915 1-252 isoform Q92915-2): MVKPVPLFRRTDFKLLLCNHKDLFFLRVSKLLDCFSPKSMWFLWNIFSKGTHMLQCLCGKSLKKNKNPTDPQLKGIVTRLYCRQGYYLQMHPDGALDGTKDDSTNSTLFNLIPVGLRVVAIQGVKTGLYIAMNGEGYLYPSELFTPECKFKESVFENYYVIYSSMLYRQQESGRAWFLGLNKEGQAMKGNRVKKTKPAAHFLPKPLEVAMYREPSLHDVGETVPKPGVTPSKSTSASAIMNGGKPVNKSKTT
T1 sequence (Q9UQD0 1763-1976 limits assumed): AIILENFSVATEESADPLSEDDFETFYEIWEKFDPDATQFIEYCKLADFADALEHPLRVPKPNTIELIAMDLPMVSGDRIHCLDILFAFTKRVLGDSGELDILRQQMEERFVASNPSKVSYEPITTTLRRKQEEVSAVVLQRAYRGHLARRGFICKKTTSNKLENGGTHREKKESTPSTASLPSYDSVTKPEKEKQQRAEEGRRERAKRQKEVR

[2] = biological target: full-length P. pyralis luciferase (Photinus pyralis, UniProt P08659, K549A/L550V/N119G/N50D/S548I); format: cell-based
Chain of full-length P. pyralis luciferase (P08659 whole entry N50D/N119G/S548I/K549A/L550V, looked up): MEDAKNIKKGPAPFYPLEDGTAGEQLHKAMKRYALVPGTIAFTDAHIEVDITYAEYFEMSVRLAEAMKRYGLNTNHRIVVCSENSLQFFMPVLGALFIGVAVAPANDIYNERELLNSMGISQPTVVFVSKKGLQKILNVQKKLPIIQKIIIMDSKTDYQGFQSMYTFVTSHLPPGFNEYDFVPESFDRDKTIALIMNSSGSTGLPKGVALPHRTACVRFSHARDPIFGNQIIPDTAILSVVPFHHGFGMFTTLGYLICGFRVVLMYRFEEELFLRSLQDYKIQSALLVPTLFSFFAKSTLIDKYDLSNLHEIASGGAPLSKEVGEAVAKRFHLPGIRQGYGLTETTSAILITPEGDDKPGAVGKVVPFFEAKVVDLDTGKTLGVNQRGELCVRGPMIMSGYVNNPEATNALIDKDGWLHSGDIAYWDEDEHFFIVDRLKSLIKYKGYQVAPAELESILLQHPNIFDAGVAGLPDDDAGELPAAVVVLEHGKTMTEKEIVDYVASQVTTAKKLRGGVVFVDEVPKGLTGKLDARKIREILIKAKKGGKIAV

[3] = CC_NCI screening, LCA luminescence
[4] = CC_NCI screening, full-length luciferase counter-screen luminescence, normalized to on-plate 0.3% DMSO controls
[5] = CC_NCI screening, full-length luciferase counter-screen, normalized to on-plate 0.3% DMSO controls
[6] = CC_NCI screening, normalized to on-plate 0.3% DMSO controls

Structure (SMILES)	Split Luciferase Assay % Lum Set 1 [1, 3]	Split Luciferase Assay %Lum Set 2 [1, 3]	Split Luciferase Assay Z-score Set 1 ([1]; CC_NCI screening, LCA)	Split Luciferase Assay Z-score Set 2 ([1]; CC_NCI screening, LCA)	Split Luciferase Assay %Lum Avg ([1]; CC_NCI screening)	Toxicity Assay % Fluor (Clone V cells)	Luciferase Assay % Lum [2, 4]	Luciferase Assay Z-score [2, 5]	Toxicity Assay % Fluor (Clone V cells; human, 16 h, 30 µM)	Toxicity Assay Z-score (Clone V cells; human, 16 h, 30 µM)	also measured
Cc1cccc(Nc2nc(-c3ccncc3)cs2)c1 [STF-62247]	23.16%	33.29%	-6.21	-5.43	28.22%	98.46%	83.43%	-2.12	–	–	Toxicity Assay Z-score (Clone V cells): -0.22
CN(C)S(=O)(=O)c1ccc2c(c1)/C(=C/c1cc3c([nH]1)CCCC3)C(=O)N2 [SU 6656]	128.60%	106.11%	2.31	0.50	117.36%	–	101.36%	0.17	105.95%	0.83	–
Cc1[nH]c(/C=C2\C(=O)Nc3ccc(S(=O)(=O)N(C)c4cccc(Cl)c4)cc32)c(C)c1C(=O)N1CCN(C)CC1 [SU 11274]	81.86%	81.14%	-1.47	-1.53	81.50%	–	85.15%	-1.90	97.70%	-0.32	–
CCN(CC)CCNC(=O)c1c(C)[nH]c(/C=C2\C(=O)Nc3ccc(F)cc32)c1C [SUNITINIB]	80.77%	74.90%	-1.55	-2.04	77.84%	93.10%	–	–	–	–	Luciferase Assay % Lum [2]: 90.75%; Luciferase Assay Z-score [2]: -1.18
CN[C@@H]1C[C@H]2O[C@@](C)([C@@H]1OC)n1c3ccccc3c3c4c(c5c6ccccc6n2c5c31)C(=O)NC4 [Staurosporine, reference compound]	23.16%	14.56%	-6.21	-6.95	18.86%	–	101.58%	0.20	–	–	Z-score (LCA primary screening) ([1]; 384-well): −6.58; IMin (% Luminescence) ([1]; antagonists, Clone V cells, 384-well, normalized to DMSO): 18.86 % Luminescence; Toxicity Assay % Fluor (Clone V cells; human): 82.83%; Toxicity Assay Z-score (Clone V cells; human): -2.40
CO[C@H]1C[C@@H]2CC[C@@H](C)[C@@](O)(O2)C(=O)C(=O)N2CCCC[C@H]2C(=O)O[C@H]([C@H](C)C[C@@H]2CC[C@@H](OC(=O)C(C)(CO)CO)[C@H](OC)C2)CC(=O)[C@H](C)/C=C(\C)[C@@H](O)[C@@H](OC)C(=O)[C@H](C)C[C@H](C)/C=C/C=C/C=C/1C [TEMSIROLIMUS]	86.21%	83.22%	-1.11	-1.36	84.72%	–	65.73%	-4.39	87.05%	-1.81	–
Cc1cc(C(C)Nc2ccccc2)c2nc(N3CCOCC3)cc(=O)n2c1 (stereo not drawn) [TGX 221]	–	–	–	–	–	–	–	–	–	–	Split Luciferase Assay Z-score Set 1 ([1]; CC_NCI screening): 0.82; Split Luciferase Assay % Lum Set 1 ([1]; CC_NCI screening): 110.12%; Split Luciferase Assay Z-score Set 2 ([1]; CC_NCI screening): 1.94; Split Luciferase Assay %Lum Set 2 ([1]; CC_NCI screening): 123.80%; Split Luciferase Assay %Lum Avg [1]: 116.96%; Toxicity Assay Z-score (CTB cell viability) (Clone V cells): 2.19; Luciferase Assay % Lum (full-length luciferase counter-screen) [2, 6]: 101.89%; Luciferase Assay Z-score (full-length luciferase counter-screen) [2, 6]: 0.24
CC(/C=C/C(=O)NO)=C\[C@@H](C)C(=O)c1ccc(N(C)C)cc1 [TRICHOSTATIN A]	147.09%	94.67%	3.81	-0.43	120.88%	97.32%	33.58%	-8.51	–	–	Toxicity Assay Z-score (Clone V cells): -0.37
CO[C@H]1C[C@@H]2CC[C@@H](C)[C@@](O)(O2)C(=O)C(=O)N2CCCC[C@H]2C(=O)O[C@H]([C@H](C)C[C@@H]2CC[C@@H](OC(=O)C(C)(CO)CO)[C@H](OC)C2)CC(=O)[C@H](C)/C=C(\C)[C@@H](O)[C@@H](OC)C(=O)[C@H](C)C[C@H](C)/C=C/C=C/C=C/1C [Temsirolimus]	50.33%	62.42%	-4.01	-3.06	56.38%	93.12%	68.61%	-4.02	–	–	Toxicity Assay Z-score (Clone V cells): -0.96
Nc1nc2nc[nH]c2c(=S)[nH]1 [Thioguanine]	93.82%	110.27%	-0.50	0.84	102.05%	–	92.95%	-0.90	96.19%	-0.53	–
CC(=O)Nc1cccc(-n2c(=O)n(C3CC3)c(=O)c3c(Nc4ccc(I)cc4F)n(C)c(=O)c(C)c32)c1 [Trametinib]	101.43%	79.06%	0.12	-1.70	90.25%	–	95.81%	-0.54	92.79%	-1.01	–
COc1ccc2c(c1)CC[C@@H]1[C@@H]2CC[C@]2(C)[C@@H](NCCCCCCN3C(=O)C=CC3=O)CC[C@@H]12 [U 73122]	128.60%	129.00%	2.31	2.36	128.80%	102.60%	109.98%	1.28	–	–	Toxicity Assay Z-score (Clone V cells): 0.36
COc1cc2/c(=N/c3ccc(Br)cc3F)nc[nH]c2cc1OCC1CCN(C)CC1 [VANDETANIB]	85.12%	88.43%	-1.20	-0.94	86.77%	85.66%	102.19%	0.28	–	–	Toxicity Assay Z-score (Clone V cells): -2.01
O=C(CCCCCCC(=O)Nc1ccccc1)NO [VORINOSTAT]	–	–	–	–	–	–	–	–	–	–	Split Luciferase Assay Z-score Set 1 ([1]; CC_NCI screening): 0.47; Split Luciferase Assay % Lum Set 1 ([1]; CC_NCI screening): 105.78%; Split Luciferase Assay Z-score Set 2 ([1]; CC_NCI screening): -1.96; Split Luciferase Assay %Lum Set 2 ([1]; CC_NCI screening): 75.94%; Split Luciferase Assay %Lum Avg [1]: 90.86%; Toxicity Assay % Fluor (CTB cell viability fluorescence) (Clone V cells): 108.87%; Toxicity Assay Z-score (CTB cell viability) (Clone V cells): 1.24; Luciferase Assay % Lum (full-length luciferase counter-screen) [2, 6]: 84.44%; Luciferase Assay Z-score (full-length luciferase counter-screen) [2, 6]: -1.99
CS(=O)(=O)c1ccc(C(=O)Nc2ccc(Cl)c(-c3ccccn3)c2)c(Cl)c1 [Vismodegib, reference compound]	175.35%	147.72%	6.09	3.88	161.54%	–	90.92%	-1.16	93.24%	-0.95	Z-score (LCA primary screening) ([1]; 384-well): 4.99; EMax (% Luminescence) ([1]; agonists, Clone V cells, 384-well, normalized to DMSO): 161.54 % Luminescence; EC50 ([1]; estimated, 8-point dose response 0.25-30 µM, n = 4 per concentration, library compounds, read-out: EC50): 1.91 µM
COc1cc2c(Nc3ccc(NC(=O)c4ccccc4)cc3)ncnc2cc1OCCCN1CCOCC1 [ZM447439]	–	–	–	–	–	–	–	–	–	–	Split Luciferase Assay Z-score Set 1 ([1]; CC_NCI screening): 1.70; Split Luciferase Assay % Lum Set 1 ([1]; CC_NCI screening): 120.99%; Split Luciferase Assay Z-score Set 2 ([1]; CC_NCI screening): -1.70; Split Luciferase Assay %Lum Set 2 ([1]; CC_NCI screening): 79.06%; Split Luciferase Assay %Lum Avg [1]: 100.03%; Toxicity Assay % Fluor (CTB cell viability fluorescence) (Clone V cells): 106.45%; Toxicity Assay Z-score (CTB cell viability) (Clone V cells): 0.90; Luciferase Assay % Lum (full-length luciferase counter-screen) [2, 6]: 98.24%; Luciferase Assay Z-score (full-length luciferase counter-screen) [2, 6]: -0.23
FC(F)c1nc2ccccc2n1-c1nc(N2CCOCC2)nc(N2CCOCC2)n1 [ZSTK474]	95.99%	74.90%	-0.32	-2.04	85.45%	–	86.44%	-1.74	95.63%	-0.61	–
